Reference: patent US11000033B2, “Ketone or oxime compound, and herbicide” (NISSAN CHEMICAL CORPORATION, priority 2014, dated 2021)

What was measured:
Type in all cases: in vivo
[1] = test system: Echinochloa oryzacola Vasing.; assay: Test Example 2: herbicidal activity, application during weed generation in submerged conditions (symbol A); details: Table 23; application herbicide amount 320 g/ha; grade 0-5 by criteria of Test Example 1
Procedure, shortened: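 Visual herbicidal ratings, taken three weeks after dosing, reflect post-emergence water-surface application to seedlings at one to two leaves. Conditions: co-sown weeds in alluvial soil flooded to 4 cm, greenhouse held at 25° C. to 30° C.; compound given as water-diluted emulsion at a fixed herbicide amount.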

Amaranthus retroflexus = assay: Test Example 5: herbicidal effect by foliage application, plastic box (symbol N); details: 320 g/ha, 3 weeks after application
Procedure, shortened: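 Emulsion formulation, diluted with water to the intended rate, was applied uniformly to leaves by small sprayer. Recipients were 14-day greenhouse-grown seedlings (25° C. to 30° C.). Assessment followed at 3 weeks.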

rice = assay: Test Example 4: effect on crop by soil treatment (symbol b); details: application herbicide amount 320 g/ha
Procedure, shortened: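 Soil-treatment setup: crop and weed seeds were spot-sown into sterilized diluvial soil, then buried beneath approximately 1.5 cm of it, and the boxes were housed in a 25–30° C. greenhouse.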

| SMILES | Herbicidal effect grade, A: Echinochloa oryzacola Vasing. [1] | N: Amaranthus retroflexus, herbicidal effect grade (Amaranthus retroflexus) | b: directly sowed rice plant, effect on crop grade (rice) | b (directly sowed rice plant) effect on crop grade (rice) |
| --- | --- | --- | --- | --- |
| CON=CC1CC(O)=C(c2c(C)cc(C)cc2C)C1=O (mixture of isomers) [3-001] | 0 (Herbicidal ratio of 5% or lower (almost no effect)) | 0 (Herbicidal ratio of 5% or lower (almost no effect)) | 2 (Herbicidal ratio of 20% or higher and lower than 40%) |  |
| CON=C(C)C1CC(O)=C(c2c(C)cc(C)cc2C)C1=O (mixture of isomers) [3-002] | 0 (Herbicidal ratio of 5% or lower (almost no effect)) | 0 (Herbicidal ratio of 5% or lower (almost no effect)) | 0 (Herbicidal ratio of 5% or lower (almost no effect)) |  |
| CCC(CCC1CC(O)=C(c2c(C)cc(C)cc2C)C1=O)=NOC (mixture of isomers) [4-001] | 0 (Herbicidal ratio of 5% or lower (almost no effect)) | 0 (Herbicidal ratio of 5% or lower (almost no effect)) | 5 (Herbicidal ratio of 90% or more (almost completely withered)) |  |
| CON=C(C)CC1CC(O)=C(c2c(C)cc(-n3cc(Cl)cn3)cc2C)C1=O (mixture of isomers) [6-004] | 5 (Herbicidal ratio of 90% or more (almost completely withered)) | 2 (Herbicidal ratio of 20% or higher and lower than 40%) | 5 (Herbicidal ratio of 90% or more (almost completely withered)) |  |
| CCc1cc(-n2cc(Cl)cn2)cc(C)c1C1=C(O)CC(CC(C)=NOC)C1=O (mixture of isomers) [6-005] | 5 (Herbicidal ratio of 90% or more (almost completely withered)) | 4 (Herbicidal ratio of 70% or higher and lower than 90%) | 5 (Herbicidal ratio of 90% or more (almost completely withered)) |  |
| CC#Cc1cc(C)c(C2=C(O)CC(CC(C)=NOC)C2=O)c(CC)c1 (mixture of isomers) [6-006] | 5 (Herbicidal ratio of 90% or more (almost completely withered)) | 0 (Herbicidal ratio of 5% or lower (almost no effect)) | 5 (Herbicidal ratio of 90% or more (almost completely withered)) |  |
| CCc1cc(C#C[Si](C)(C)C)cc(C)c1C1=C(O)CC(CC(C)=NOC)C1=O (mixture of isomers) [6-008] | 5 (Herbicidal ratio of 90% or more (almost completely withered)) | 0 (Herbicidal ratio of 5% or lower (almost no effect)) | 5 (Herbicidal ratio of 90% or more (almost completely withered)) |  |
| CC#Cc1cc(C)c(C2=C(O)CC(CC(C)=NOC)C2=O)c(C)c1 (mixture of isomers) [6-009] | 3 (Herbicidal ratio of 40% or higher and lower than 70%) | 0 (Herbicidal ratio of 5% or lower (almost no effect)) | 5 (Herbicidal ratio of 90% or more (almost completely withered)) |  |
| CON=C(C)CC1CC(O)=C(c2c(C)cc(C#CC3CC3)cc2C)C1=O (mixture of isomers) [6-010] | 5 (Herbicidal ratio of 90% or more (almost completely withered)) | 0 (Herbicidal ratio of 5% or lower (almost no effect)) | 5 (Herbicidal ratio of 90% or more (almost completely withered)) |  |
| CON=C(C)CC1CC(O)=C(c2c(C)cc(-c3ccc(C(F)(F)F)cc3)cc2C)C1=O (mixture of isomers) [6-016] | 3 (Herbicidal ratio of 40% or higher and lower than 70%) | 0 (Herbicidal ratio of 5% or lower (almost no effect)) | 2 (Herbicidal ratio of 20% or higher and lower than 40%) |  |
| CON=C(C)CC1CC(O)=C(c2c(C)cc(-c3ccc(OC)cc3)cc2C)C1=O (mixture of isomers) [6-017] | 4 (Herbicidal ratio of 70% or higher and lower than 90%) | 0 (Herbicidal ratio of 5% or lower (almost no effect)) | 3 (Herbicidal ratio of 40% or higher and lower than 70%) |  |
| CON=C(C)CC1CC(O)=C(c2c(C)cc(-c3ccc(C)cc3)cc2C)C1=O (mixture of isomers) [6-018] | 5 (Herbicidal ratio of 90% or more (almost completely withered)) | 0 (Herbicidal ratio of 5% or lower (almost no effect)) | 3 (Herbicidal ratio of 40% or higher and lower than 70%) |  |
| CON=C(C)CC1CC(O)=C(c2c(C)cc(C#CCO)cc2C)C1=O (mixture of isomers) [6-025] | 2 (Herbicidal ratio of 20% or higher and lower than 40%) | 0 (Herbicidal ratio of 5% or lower (almost no effect)) | 5 (Herbicidal ratio of 90% or more (almost completely withered)) |  |
| CON=C(C)CC1CC(O)=C(c2c(C)cc(-c3ccc(Cl)cc3)cc2C)C1=O (mixture of isomers) [6-029] | 5 (Herbicidal ratio of 90% or more (almost completely withered)) | 5 (Herbicidal ratio of 90% or more (almost completely withered)) | 5 (Herbicidal ratio of 90% or more (almost completely withered)) |  |
| C=Cc1cc(C)c(C2=C(O)CC(CC(C)=NOC)C2=O)c(C)c1 (mixture of isomers) [6-031] | 4 (Herbicidal ratio of 70% or higher and lower than 90%) | 0 (Herbicidal ratio of 5% or lower (almost no effect)) | 0 (Herbicidal ratio of 5% or lower (almost no effect)) |  |
| CON=C(C)CC1CC(O)=C(c2c(C)cc(-c3cccc(Cl)c3)cc2C)C1=O (mixture of isomers) [6-034] | 5 (Herbicidal ratio of 90% or more (almost completely withered)) | 3 (Herbicidal ratio of 40% or higher and lower than 70%) | 2 (Herbicidal ratio of 20% or higher and lower than 40%) |  |
| CON=C(C)CC1CC(O)=C(c2c(C)cc(-c3ccc(Cl)nc3)cc2C)C1=O (mixture of isomers) [6-035] | 5 (Herbicidal ratio of 90% or more (almost completely withered)) | 5 (Herbicidal ratio of 90% or more (almost completely withered)) | 5 (Herbicidal ratio of 90% or more (almost completely withered)) |  |
| C#CCOC1=C(c2c(C)cc(C)cc2C)C(=O)C(CC(C)=NOC)C1 (stereo not drawn) [1-008] | 5 (Herbicidal ratio of 90% or more (almost completely withered)) | 0 (Herbicidal ratio of 5% or lower (almost no effect)) |  | 3 (Herbicidal ratio of 40% or higher and lower than 70%) |
| CON=C(C)CC1CC(OC(=O)c2ccccc2)=C(c2c(C)cc(C)cc2C)C1=O (stereo not drawn) [1-010] | 5 (Herbicidal ratio of 90% or more (almost completely withered)) | 4 (Herbicidal ratio of 70% or higher and lower than 90%) |  | 5 (Herbicidal ratio of 90% or more (almost completely withered)) |
| CON=C(C)CC1CC(OCCSC)=C(c2c(C)cc(C)cc2C)C1=O (stereo not drawn) [1-011] | 0 (Herbicidal ratio of 5% or lower (almost no effect)) | 0 (Herbicidal ratio of 5% or lower (almost no effect)) |  | 0 (Herbicidal ratio of 5% or lower (almost no effect)) |
| CON=C(C)CC1CC(OCC(=O)OC)=C(c2c(C)cc(C)cc2C)C1=O (stereo not drawn) [1-012] | 0 (Herbicidal ratio of 5% or lower (almost no effect)) | 0 (Herbicidal ratio of 5% or lower (almost no effect)) |  | 0 (Herbicidal ratio of 5% or lower (almost no effect)) |
| CON=C(C)CC1CC(OCC#N)=C(c2c(C)cc(C)cc2C)C1=O (stereo not drawn) [1-013] | 0 (Herbicidal ratio of 5% or lower (almost no effect)) | 0 (Herbicidal ratio of 5% or lower (almost no effect)) |  | 0 (Herbicidal ratio of 5% or lower (almost no effect)) |
| CON=C(C)CC1CC(OC(=O)OC)=C(c2c(C)cc(C)cc2C)C1=O (stereo not drawn) [1-014] | 5 (Herbicidal ratio of 90% or more (almost completely withered)) | 5 (Herbicidal ratio of 90% or more (almost completely withered)) |  | 4 (Herbicidal ratio of 70% or higher and lower than 90%) |
| CCOC(=O)C(C(=O)CC1CC1)C1CC(O)=C(c2c(C)cc(C)cc2C)C1=O (stereo not drawn) [2-025] |  | 0 (Herbicidal ratio of 5% or lower (almost no effect)) | 5 (Herbicidal ratio of 90% or more (almost completely withered)) |  |
| CON=C(C)CC1CC(O)=C(c2c(C)cc(C(=O)OC)cc2C)C1=O (stereo not drawn) [6-023] |  | 0 (Herbicidal ratio of 5% or lower (almost no effect)) | 5 (Herbicidal ratio of 90% or more (almost completely withered)) |  |
| CON=C(C)CC1CC(O)=C(c2c(C)cc(C(C)=O)cc2C)C1=O (stereo not drawn) [6-026] |  | 0 (Herbicidal ratio of 5% or lower (almost no effect)) | 5 (Herbicidal ratio of 90% or more (almost completely withered)) |  |
